We go through 39 compounds from patent US9708331B2, “Metabotrophic glutamate receptor 5 modulators and methods of use thereof” (SUNOVION PHARMACEUTICALS INC., priority 2011, dated 2017).

The target in data set [1] is T1, mGluR5 (Homo sapiens, UniProt P41594). The experiment in a line: mGluR5 PAM EC50 (positive allosteric modulator potency). The format is cell-based.
The target of data set [2] is T1, mGluR5. The experiment in a line: mGluR5 fold shift at a fixed compound concentration. The format is cell-based.

T1 sequence (P41594 21-1212): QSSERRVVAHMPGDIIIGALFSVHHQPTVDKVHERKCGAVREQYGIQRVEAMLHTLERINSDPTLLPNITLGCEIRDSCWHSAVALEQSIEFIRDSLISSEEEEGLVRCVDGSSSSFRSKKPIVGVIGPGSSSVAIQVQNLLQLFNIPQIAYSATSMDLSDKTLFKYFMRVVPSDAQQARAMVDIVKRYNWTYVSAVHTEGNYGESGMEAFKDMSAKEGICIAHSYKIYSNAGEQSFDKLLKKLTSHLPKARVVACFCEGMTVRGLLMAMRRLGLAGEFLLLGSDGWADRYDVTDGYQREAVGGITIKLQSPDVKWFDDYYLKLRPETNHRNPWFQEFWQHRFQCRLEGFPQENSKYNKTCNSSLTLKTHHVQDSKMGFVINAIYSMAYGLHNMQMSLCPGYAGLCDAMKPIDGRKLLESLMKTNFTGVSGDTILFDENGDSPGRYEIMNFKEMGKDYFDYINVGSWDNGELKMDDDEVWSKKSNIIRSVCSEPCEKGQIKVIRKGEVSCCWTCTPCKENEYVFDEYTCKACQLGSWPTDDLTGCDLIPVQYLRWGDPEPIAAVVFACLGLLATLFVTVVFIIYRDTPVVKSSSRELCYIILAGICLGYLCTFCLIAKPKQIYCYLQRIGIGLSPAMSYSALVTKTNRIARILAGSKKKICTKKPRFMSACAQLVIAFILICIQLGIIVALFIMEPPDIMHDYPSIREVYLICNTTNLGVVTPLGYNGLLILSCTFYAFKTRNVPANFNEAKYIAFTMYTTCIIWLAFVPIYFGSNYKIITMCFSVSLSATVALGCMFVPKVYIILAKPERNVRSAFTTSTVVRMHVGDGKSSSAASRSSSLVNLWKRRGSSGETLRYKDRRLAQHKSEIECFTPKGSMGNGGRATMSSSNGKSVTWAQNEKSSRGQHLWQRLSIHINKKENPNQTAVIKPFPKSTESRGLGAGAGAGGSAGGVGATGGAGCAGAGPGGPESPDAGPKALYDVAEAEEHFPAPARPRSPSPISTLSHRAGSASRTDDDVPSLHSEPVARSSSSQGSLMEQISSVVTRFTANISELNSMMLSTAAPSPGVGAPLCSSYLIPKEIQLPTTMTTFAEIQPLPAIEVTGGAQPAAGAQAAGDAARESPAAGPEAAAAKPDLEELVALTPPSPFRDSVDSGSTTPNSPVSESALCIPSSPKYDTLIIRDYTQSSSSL

As a reminder, the EC50 is the midpoint of the concentration-response curve. A high value points to a less potent agent. `CC1(F)CCc2nc3cc(C#Cc4ccccn4)cnc3c(=O)n2CC1` (single isomer, unassigned) [Example 3.10b]: the EC50 on mGluR5 [1] lay in the range of 30 to 100 nM. For the same compound, the “Fold shift at 1 μM” value at mGluR5 [2] was “+++ (+++>3)”.
`CC1(C)CC(F)c2nc3cc(C#Cc4ccccn4)ccc3c(=O)n2C1` (single isomer, unassigned) [Example 2.12a]: the EC50 at mGluR5 [1] is less than 10 nM. On mGluR5 [2], the “Fold shift at 10 μM” value was “+++ (+++>3)”.
On to `CC12Cn3c(nc4cc(C#Cc5ccccn5)ccc4c3=O)CC1C2(F)F` (stereo not shown) [Example 2.69, 1,1-difluoro-10a-methyl-5-(pyridin-2-ylethynyl)-1a,2,10,10a-tetrahydrocyclopropa[4,5]pyrido [2,1-b]quinazolin-8(1H)-one], for which the EC50 at mGluR5 [1] is less than 10 nM. In addition, the “Fold shift at 1 μM” value at mGluR5 [2] is on record as “+++ (+++>3)”.
As for `O=c1c2ccc(C#Cc3ccccn3)cc2nc2n1C1CCC2C1` (single isomer, unassigned) [Example 2.9a], the EC50 on mGluR5 [1] was in the range of 10 to 30 nM. For the same compound, at mGluR5 [2], the “Fold shift at 1 μM” value was “+ (+ is between 1.5 and 1.9)”.
With `Cc1ncc(C#Cc2ccc3c(=O)n4c(nc3c2)CCC(C)(C)C4)s1` [Example 2.49, 8,8-dimethyl-3-((2-methylthiazol-5-yl)ethynyl)-8,9-dihydro-6H-pyrido[2,1-b]quinazolin-11(7H)-one], on mGluR5 [1], the EC50 is less than 10 nM. The “Fold shift at 1 μM” value at mGluR5 [2] is “++ (++ is between 2.0 and 2.9)”.
With `CC1(CF)CCc2nc3cc(C#Cc4ccccn4)ccc3c(=O)n2C1` (stereo not shown) [Example 2.96, 8-(fluoromethyl)-8-methyl-3-(pyridin-2-ylethynyl)-8,9-dihydro-6H-pyrido[2,1-b]quinazolin-11(7H)-one], on mGluR5 [1], the EC50 was less than 10 nM. The “Fold shift at 1 μM” value at mGluR5 [2] is given as “+++ (+++>3)”.
Consider `O=c1c2ccc(C#Cc3ccccn3)cc2nc2n1CC1(CCC1)C2` [Example 1.7, 6′-(pyridin-2-ylethynyl)-1′H-spiro[cyclobutane-1,2′-pyrrolo[2,1-b]quinazolin]-9′(3′H)-one], for which the EC50 on mGluR5 [1] is 10 to 30 nM. On mGluR5 [2], the “Fold shift at 1 μM” value is “+++ (+++>3)”.
In turn, `COc1cccc(C#Cc2ccc3c(=O)n4c(nc3c2)CCC(C)(C)C4)n1` [Example 2.101, 3-((6-methoxypyridin-2-yl)ethynyl)-8,8-dimethyl-8,9-dihydro-6H-pyrido[2,1-b]quinazolin-11(7H)-one] showed an EC50 at mGluR5 [1] of 30 to 100 nM. On mGluR5 [2], the “Fold shift at 1 μM” value was “++ (++ is between 2.0 and 2.9)”.
Take `CC1Cc2nc3cc(C#Cc4ccccn4)ccc3c(=O)n2CCC1(F)F` (single isomer, unassigned) [Example 3.30d]: the “Fold shift at 10 μM” value at mGluR5 [2] is “+ (+ is between 1.5 and 1.9)”.
As to `O=c1c2ccc(C#Cc3ccccn3)cc2nc2n1C1CCC2C1` (single isomer, unassigned) [Example 2.9b], on mGluR5 [2], the “Fold shift at 1 μM” value is “++ (++ is between 2.0 and 2.9)”.
On mGluR5 [1], `COCC1(C)CCc2nc3cc(C#Cc4ccccn4)ccc3c(=O)n2C1` (stereo not shown) [Example 2.97, 8-(methoxymethyl)-8-methyl-3-(pyridin-2-ylethynyl)-8,9-dihydro-6H-pyrido[2,1-b]quinazolin-11(7H)-one] returned an EC50 of 10 to 30 nM. For the same compound, on mGluR5 [2], the “Fold shift at 1 μM” value is reported as “+++ (+++>3)”.
For the compound `CC1(C)CCc2nc3cc(C#Cc4cccc(C#N)c4)ccc3c(=O)n2C1` [Example 2.45, 3-((8,8-dimethyl-11-oxo-7,8,9,11-tetrahydro-6H-pyrido[2,1-b]quinazolin-3-yl)ethynyl)benzonitrile], the EC50 on mGluR5 [1] was in the range of 10 to 30 nM. Further, the “Fold shift at 1 μM” value at mGluR5 [2] is “++ (++ is between 2.0 and 2.9)”.
With `CC1CCn2c(nc3cc(C#Cc4ccccn4)ccc3c2=O)C1` (single isomer, unassigned) [Example 2.1b], the “Fold shift at 1 μM” value on mGluR5 [2] is “++ (++ is between 2.0 and 2.9)”.
Take `COC1(C)CCc2nc3cc(C#Cc4ccccn4)ccc3c(=O)n2CC1` (single isomer, unassigned) [Example 3.4b]: the “Fold shift at 10 μM” value at mGluR5 [2] was “++ (++ is between 2.0 and 2.9)”.
With `Cc1cnc(C#Cc2ccc3c(=O)n4c(nc3c2)CCC(C)(C)C4)s1` [Example 2.50, 8,8-dimethyl-3-((5-methylthiazol-2-yl)ethynyl)-8,9-dihydro-6H-pyrido[2,1-b]quinazolin-11(7H)-one], the EC50 on mGluR5 [1] was less than 10 nM.
Still for that read-out and setting: with `C/C(=C\c1ccc2c(=O)n3c(nc2c1)CCC(C)(C)C3)c1ccccn1` [Example 6.5, (E)-8,8-dimethyl-3-(2-(pyridin-2-yl)prop-1-en-1-yl)-8,9-dihydro-6H-pyrido[2,1-b]quinazolin-11(7H)-one] the figure was 100 to 300 nM.
On the same count and under the same terms, with `O=c1c2ncc(C#Cc3ccccn3)cc2nc2n1CC(C(F)(F)F)C2` (stereo not shown) [Example 1.17, 3-(pyridin-2-ylethynyl)-7-(trifluoromethyl)-7,8-dihydropyrido[3,2-d]pyrrolo[1,2-a]pyrimidin-10(6H)-one] the figure was 100 to 300 nM; with `CCC1CCCc2nc3cc(C#Cc4ccccn4)ccc3c(=O)n21` (single isomer, unassigned) [Example 2.7b], less than 10 nM; with `CC1(C)CCc2nc3cc(C#Cc4ccc(F)cc4)ccc3c(=O)n2C1` [Example 2.75, 3-((4-fluorophenyl)ethynyl)-8,8-dimethyl-8,9-dihydro-6H-pyrido[2,1-b]quinazolin-11(7H)-one], 10 to 30 nM.
Still for that read-out and setting: the value for `CC1CCc2nc3c(F)c(C#Cc4ccccn4)ccc3c(=O)n2CC1` (single isomer, unassigned) [Example 3.12a] was less than 10 nM; that for `CC1(C)CCc2nc3cc(-c4cnc(-c5ccccn5)s4)ccc3c(=O)n2C1` [Example 6.28, 8,8-dimethyl-3-(2-(pyridin-2-yl)thiazol-5-yl)-8,9-dihydro-6H-pyrido[2,1-b]quinazolin-11(7H)-one] was 300 to 1000 nM; that for `O=c1c2ccc(C#Cc3ccccn3)cc2nc2n1CCC1(CCCO1)CC2` (single isomer, unassigned) [Example 3.3b] was 100 to 300 nM.
`O=c1c2ccc(C#Cc3ccccn3)cc2nc2n1CC(C(F)(F)F)CC2` (single isomer, unassigned) [Example 2.14b] came in with an EC50 at mGluR5 [1] of less than 10 nM.
Still for that read-out and setting: the value for `CC1(C)Cn2c(nc3cc(C#Cc4ccccn4)cnc3c2=O)C1F` (stereo not shown) [Example 1.20, 6-fluoro-7,7-dimethyl-3-(pyridin-2-ylethynyl)-7,8-dihydropyrido[3,2-d]pyrrolo[1,2-a]pyrimidin-10(6H)-one] was 100 to 300 nM; that for `CC1(C)CCC2Cn3c(nc4cc(C#Cc5ccccn5)ccc4c3=O)CN21` (stereo not shown) [Example 2.26, 3,3-dimethyl-8-(pyridin-2-ylethynyl)-2,3,13,13a-tetrahydro-1H-pyrrolo[1′,2′:4,5] pyrazino[2,1-b]quinazolin-11(5H)-one] was 100 to 300 nM; that for `O=c1c2ccc(C#Cc3ccccn3)cc2nc2n1CCN1CCC2C1` (stereo not shown) [Example 3.6, 9-(pyridin-2-ylethynyl)-1,2,5,6-tetrahydro-3,6-methano[1,4]diazocino[8,1-b]quinazolin-12(4H)-one] was 100 to 300 nM.
Compound `CC1(C)CCc2nc3cc(-c4ncc(-c5ccccn5)cn4)ccc3c(=O)n2C1` [Example 6.42, 8,8-dimethyl-3-(5-(pyridin-2-yl)pyrimidin-2-yl)-8,9-dihydro-6H-pyrido[2,1-b]quinazolin-11(7H)-one] returned an EC50 on mGluR5 [1] of 300 to 1000 nM.
The same measure, in the same setting: with `O=c1c2ncc(C#Cc3ccccn3)cc2nc2n1CC(F)(F)CCC2` [Example 3.26, 9,9-difluoro-3-(pyridin-2-ylethynyl)-7,8,9,10-tetrahydropyrido[3′,2′:4,5]pyrimido [1,2-a]azepin-12(6H)-one] the figure was 30 to 100 nM; with `N#Cc1ccnc(C#Cc2ccc3c(=O)n4c(nc3c2)CCCCC4)c1` [Example 3.5, 2-((12-oxo-6,7,8,9,10,12-hexahydroazepino[2,1-b]quinazolin-3-yl)ethynyl)isonicotinonitrile], 10 to 30 nM; with `O=c1c2ccc(C#Cc3ccccn3)cc2nc2n1CC1(COC1)C2` [Example 1.6, 6′-(pyridin-2-ylethynyl)-1′H-spiro[oxetane-3,2′-pyrrolo[2,1-b]quinazolin]-9′(3′H)-one], 30 to 100 nM.
As to `O=c1c2ccc(C#Cc3ccccn3)cc2nc2n1CC1(CCC2)COC1` [Example 3.38, 3-(pyridin-2-ylethynyl)-7,8-dihydro-6H-spiro[azepino[2,1-b]quinazoline-9,3′-oxetan]-12(10H)-one], on mGluR5 [1], the EC50 is 10 to 30 nM.
On the same count and under the same terms, the value for `Cc1cc(C#Cc2ccccn2)cc2nc3n(c(=O)c12)CCC(C)CC3` (stereo not shown) [Example 3.22, 1,8-dimethyl-3-(pyridin-2-ylethynyl)-7,8,9,10-tetrahydroazepino[2,1-b]quinazolin-12(6H)-one] was 30 to 100 nM; that for `CC1(C)Cc2nc3cc(NC(=O)c4ccccn4)ccc3c(=O)n2C1` [Example 4.18, N-(2,2-dimethyl-9-oxo-1,2,3,9-tetrahydropyrrolo[2,1-b]quinazolin-6-yl)picolinamide] was 300 to 1000 nM; that for `O=c1c2ccc(C#Cc3ccccn3)cc2nc2n1CCC1(CO)CC21` (stereo not shown) [Example 2.103, 1a-(hydroxymethyl)-8-(pyridin-2-ylethynyl)-1,2,3,10b-tetrahydrocyclopropa[3,4]pyrido [2,1-b]quinazolin-5(1aH)-one] was 100 to 300 nM.
Still for that read-out and setting: the value for `CCC1CCCc2nc3cc(C#Cc4ccccn4)ccc3c(=O)n21` (single isomer, unassigned) [Example 2.7a] was 30 to 100 nM.
Same read-out and setting: the value for `CCC1CCc2nc3cc(C#Cc4ccccn4)cnc3c(=O)n2C1` (single isomer, unassigned) [Example 2.22b] was 100 to 300 nM.
For the compound `CC1(C)CC(F)c2nc3cc(C#Cc4ccccn4)ccc3c(=O)n2C1` (single isomer, unassigned) [Example 2.12b], the “Fold shift at 10 μM” value at mGluR5 [2] was “+ (+ is between 1.5 and 1.9)”.
Regarding `CC1(C)CCc2nc3cc(Nc4ccccn4)ccc3c(=O)n2C1` [Example 6.2, 8,8-dimethyl-3-(pyridin-2-ylamino)-8,9-dihydro-6H-pyrido[2,1-b]quinazolin-11(7H)-one], the EC50 at mGluR5 [1] lay within 300 to 1000 nM.
In the case of `CC1(C)CCc2nc3cc(C#Cc4ccnc(F)c4)ccc3c(=O)n2C1` [Example 2.92, 3-((2-fluoropyridin-4-yl)ethynyl)-8,8-dimethyl-8,9-dihydro-6H-pyrido[2,1-b]quinazolin-11(7H)-one], the EC50 on mGluR5 [1] was less than 10 nM.
